Assay results reported in ChEMBL document CHEMBL3885861, “Open TG-GATES”.

Species on record: Rattus norvegicus
Experiment: Open TG-GATES - Regimen: Daily Repeat
Assay type: toxicity, organism-based, Sprague-Dawley
Set-up: regimen Daily Repeat, gender Male, age 6 weeks
Conditions: in vivo, po, 300 mg/kg, route gavage, dose level High; for APTT / Bas / Eos / Fbg / Hb / Ht / Lym / MCH / MCHC / MCV / Mono / Neu / PT / Plat / RBC / Ret / WBC: tissue Blood; for KIDNEY_L / KIDNEY_R / KIDNEY_TOTAL: tissue Kidney; for LIVER: tissue Liver; for ALP / ALT / AST / BUN / CRE / DBIL / GLC / IP / K / LDH / Na / PL / RALB / TBIL / TC / TG / TP / gamma-GTP: tissue Plasma

`Clc1ccccc1CN1CCc2sccc2C1` [TICLOPIDINE] gave a TERMINAL_BW (72 h, time 3 day) of 211.5 g, an APTT (72 h, time 3 day) of 25.4 s and a Bas (72 h, time 3 day) of 0.6%. The Eos (72 h, time 3 day) was 0.8%, the Fbg (72 h, time 3 day) was 212.6 mg/dL and the Hb (72 h, time 3 day) was 13.7 g/dL. For the same compound, the Ht (72 h, time 3 day) was 38.5%, the Lym (72 h, time 3 day) was 84% and the MCH (72 h, time 3 day) was 21.4 pg. For the same compound, the MCHC (72 h, time 3 day) was 35.5%, the MCV (72 h, time 3 day) was 60.1 fL and the Mono (72 h, time 3 day) was 2.6%. The Neu (72 h, time 3 day) was 11.2%, the PT (72 h, time 3 day) was 12.4 s and the Plat (72 h, time 3 day) was 149.4 x10_4/uL. For the same compound, the RBC (72 h, time 3 day) was 640.4 x10_4/ul, the Ret (72 h, time 3 day) was 3.5% and the WBC (72 h, time 3 day) was 84 x10_2/uL. The KIDNEY_L (72 h, time 3 day) was 1.1 g, the KIDNEY_R (72 h, time 3 day) was 1 g and the KIDNEY_TOTAL (72 h, time 3 day) was 2.1 g. The LIVER (72 h, time 3 day) was 13 g, the ALP (72 h, time 3 day) was 1140 IU/L and the ALT (72 h, time 3 day) was 40.2 IU/L. For the same compound, the AST (72 h, time 3 day) was 68.6 IU/L, the BUN (72 h, time 3 day) was 13.8 mg/dL and the CRE (72 h, time 3 day) was 0.4 mg/dL. For the same compound, the DBIL (72 h, time 3 day) was 0.084 mg/dL, the GLC (72 h, time 3 day) was 175.4 mg/dL and the IP (72 h, time 3 day) was 7 mg/dL. It also gave a K (72 h, time 3 day) of 4 meq/L, an LDH (72 h, time 3 day) of 134.6 IU/L and a Na (72 h, time 3 day) of 142 meq/L. For the same compound, the PL (72 h, time 3 day) was 163.2 mg/dL, the RALB (72 h, time 3 day) was 3.2 g/dL and the TBIL (72 h, time 3 day) was 0.1 mg/dL. The TC (72 h, time 3 day) was 93 mg/dL, the TG (72 h, time 3 day) was 55.6 mg/dL and the TP (72 h, time 3 day) was 5.2 g/dL. The gamma-GTP (72 h, time 3 day) was 1.6 IU/L, the TERMINAL_BW ([…], time 7 day) was 243.3 g and the TERMINAL_BW ([…], time 14 day) was 287.4 g. For the same compound, the TERMINAL_BW ([…], time 28 day) was 349.5 g, the APTT ([…], time 7 day) was 25.4 s and the Bas ([…], time 7 day) was 0.4%. It also gave an Eos ([…], time 7 day) of 1%, a Fbg ([…], time 7 day) of 249.2 mg/dL and a Hb ([…], time 7 day) of 13.3 g/dL. The Ht ([…], time 7 day) was 37.1%, the Lym ([…], time 7 day) was 73.6% and the MCH ([…], time 7 day) was 20.6 pg. It also gave an MCHC ([…], time 7 day) of 35.8%, an MCV ([…], time 7 day) of 57.3 fL and a Mono ([…], time 7 day) of 3%. The Neu ([…], time 7 day) was 20.8%, the PT ([…], time 7 day) was 12.5 s and the Plat ([…], time 7 day) was 141.7 x10_4/uL. It also gave an RBC ([…], time 7 day) of 646.4 x10_4/ul, a Ret ([…], time 7 day) of 4.9% and a WBC ([…], time 7 day) of 116.7 x10_2/uL. For the same compound, the APTT ([…], time 14 day) was 27.3 s, the Bas ([…], time 14 day) was 0.6% and the Eos ([…], time 14 day) was 1%. The Fbg ([…], time 14 day) was 229.6 mg/dL, the Hb ([…], time 14 day) was 14.1 g/dL and the Ht ([…], time 14 day) was 39.4%. It also gave a Lym ([…], time 14 day) of 82.4%, an MCH ([…], time 14 day) of 20.9 pg and an MCHC ([…], time 14 day) of 35.9%. It also gave an MCV ([…], time 14 day) of 58.1 fL, a Mono ([…], time 14 day) of 2.2% and a Neu ([…], time 14 day) of 12.8%. The PT ([…], time 14 day) was 12.5 s, the Plat ([…], time 14 day) was 123 x10_4/uL and the RBC ([…], time 14 day) was 679 x10_4/ul. It also gave a Ret ([…], time 14 day) of 4.4%, a WBC ([…], time 14 day) of 118.3 x10_2/uL and an APTT ([…], time 28 day) of 22.4 s. It also gave a Bas ([…], time 28 day) of 0.8%, an Eos ([…], time 28 day) of 1.4% and a Fbg ([…], time 28 day) of 261.8 mg/dL. For the same compound, the Hb ([…], time 28 day) was 14.8 g/dL, the Ht ([…], time 28 day) was 39.8% and the Lym ([…], time 28 day) was 77.4%. For the same compound, the MCH ([…], time 28 day) was 19.7 pg, the MCHC ([…], time 28 day) was 37.1% and the MCV ([…], time 28 day) was 53.3 fL. It also gave a Mono ([…], time 28 day) of 2.4%, a Neu ([…], time 28 day) of 17.6% and a PT ([…], time 28 day) of 11.8 s. For the same compound, the Plat ([…], time 28 day) was 108.6 x10_4/uL, the RBC ([…], time 28 day) was 747.8 x10_4/ul and the Ret ([…], time 28 day) was 3.2%. The WBC ([…], time 28 day) was 125.4 x10_2/uL, the KIDNEY_L ([…], time 7 day) was 1.1 g and the KIDNEY_R ([…], time 7 day) was 1.1 g. It also gave a KIDNEY_TOTAL ([…], time 7 day) of 2.2 g, a KIDNEY_L ([…], time 14 day) of 1.3 g and a KIDNEY_R ([…], time 14 day) of 1.3 g. The KIDNEY_TOTAL ([…], time 14 day) was 2.6 g, the KIDNEY_L ([…], time 28 day) was 1.5 g and the KIDNEY_R ([…], time 28 day) was 1.5 g. The KIDNEY_TOTAL ([…], time 28 day) was 3.1 g, the LIVER ([…], time 7 day) was 14.1 g and the LIVER ([…], time 14 day) was 16.6 g. The LIVER ([…], time 28 day) was 20 g, the ALP ([…], time 7 day) was 768.8 IU/L and the ALT ([…], time 7 day) was 49.8 IU/L. For the same compound, the AST ([…], time 7 day) was 78 IU/L, the BUN ([…], time 7 day) was 15.8 mg/dL and the CRE ([…], time 7 day) was 0.4 mg/dL. The DBIL ([…], time 7 day) was 0.084 mg/dL, the GLC ([…], time 7 day) was 172.6 mg/dL and the IP ([…], time 7 day) was 7.3 mg/dL. The K ([…], time 7 day) was 4.1 meq/L, the LDH ([…], time 7 day) was 186 IU/L and the Na ([…], time 7 day) was 142.4 meq/L. For the same compound, the PL ([…], time 7 day) was 222.6 mg/dL, the RALB ([…], time 7 day) was 3.5 g/dL and the TBIL ([…], time 7 day) was 0.1 mg/dL. The TC ([…], time 7 day) was 126.8 mg/dL, the TG ([…], time 7 day) was 67.4 mg/dL and the TP ([…], time 7 day) was 6 g/dL. It also gave a gamma-GTP ([…], time 7 day) of 1.8 IU/L, an ALP ([…], time 14 day) of 721.2 IU/L and an ALT ([…], time 14 day) of 35.2 IU/L. For the same compound, the AST ([…], time 14 day) was 62.4 IU/L, the BUN ([…], time 14 day) was 15.2 mg/dL and the CRE ([…], time 14 day) was 0.4 mg/dL. For the same compound, the DBIL ([…], time 14 day) was 0.08 mg/dL, the GLC ([…], time 14 day) was 201.4 mg/dL and the IP ([…], time 14 day) was 8.4 mg/dL. The K ([…], time 14 day) was 3.9 meq/L, the LDH ([…], time 14 day) was 141 IU/L and the Na ([…], time 14 day) was 142.2 meq/L. For the same compound, the PL ([…], time 14 day) was 182.8 mg/dL, the RALB ([…], time 14 day) was 3.4 g/dL and the TBIL ([…], time 14 day) was 0.1 mg/dL. For the same compound, the TC ([…], time 14 day) was 99.2 mg/dL, the TG ([…], time 14 day) was 53.6 mg/dL and the TP ([…], time 14 day) was 6 g/dL. It also gave a gamma-GTP ([…], time 14 day) of 2.4 IU/L, an ALP ([…], time 28 day) of 578.4 IU/L and an ALT ([…], time 28 day) of 47 IU/L. The AST ([…], time 28 day) was 67.6 IU/L, the BUN ([…], time 28 day) was 16.8 mg/dL and the CRE ([…], time 28 day) was 0.5 mg/dL. The DBIL ([…], time 28 day) was 0.086 mg/dL, the GLC ([…], time 28 day) was 197 mg/dL and the IP ([…], time 28 day) was 7.9 mg/dL. It also gave a K ([…], time 28 day) of 4 meq/L, an LDH ([…], time 28 day) of 196.6 IU/L and a Na ([…], time 28 day) of 141.6 meq/L. The PL ([…], time 28 day) was 206 mg/dL, the RALB ([…], time 28 day) was 3.7 g/dL and the TBIL ([…], time 28 day) was 0.1 mg/dL. For the same compound, the TC ([…], time 28 day) was 116.4 mg/dL, the TG ([…], time 28 day) was 62.4 mg/dL and the TP ([…], time 28 day) was 6.5 g/dL. The gamma-GTP ([…], time 28 day) was 2.6 IU/L.
